Reference: patent publication US9474790B2, “Stable, protracted GLP-1/glucagon receptor co-agonists for medical use” (Novo Nordisk A/S, priority 2013, dated 2016)
Numbered stars: 1 amine (or outer) side, 2 acyl side, 3 side chain; on linkers, the order of the positions; unused ones are H or OH. Square brackets hold non-standard residues; d marks the D form. Side chains are listed from the residue outwards. Peptide text beside a SMILES is read from it. * marks the point of attachment. C18 diacid = O=C(O)CCCCCCCCCCCCCCCCC(=O)*; γGlu = O=C(O)[C@H](CCC(=O)[*:2])N[*:1]; AEEA = NCCOCCOCC(=O)O; Aib = CC(C)(N)C(=O)O

Target: T1, human GLP-1 receptor (Homo sapiens, UniProt P43220)
T1 construct: expressed in transfected cells; host or cells: BHK cells (parent BHKTS13), clone FCW467-12A/KZ10-1, with CRE luciferase
Assay: GLP-1 receptor potency, CRE luciferase reporter gene assay in BHK cells
Format: cell-based
Settings: BHK cells expressing human GLP-1 receptor, read-out: EC50 GLP-1R
Method: The purpose of this example was to test the potency, of the glucagon derivatives of the invention, in vitro. The in vitro potency is the measure of human GLP-1 receptor or glucagon receptor activation, respectively, in a whole cell assay.
In vitro potency was determined by measuring the response of human GLP-1 or glucagon receptor, respectively, in a reporter gene assay. The assay was performed in a stably transfected BHK cell line that expresses either the human GLP-1 receptor or the human glucagon receptor and contains the DNA for the cAMP response element (CRE) coupled to a promoter and the gene for firefly luciferase (CRE luciferase). […] When assay incubation was completed, the luciferase substrate (luciferin) was added and the enzyme converted luciferin to oxyluciferin and produces bioluminescence. The luminescence was measured as the readout for the assay.
The cells used in this assay (clone FCW467-12A/KZ10-1) were BHK cells with BHKTS13 as a parent cell line. The cells were derived from a clone (FCW467-12A) that expresses the human GLP-1 receptor and were established by further transfection with
CRE luciferase to obtain the current clone.
The cells were cultured at 5% CO2 in DMEM medium with 10% FBS, 1×GlutaMAX, 1 mg/ml G418, 240 nM MTX (methotrexate) and 1% pen/strep (penicillin/streptomycin). They were aliquoted and stored in liquid nitrogen. Before each assay, an aliquot was taken up and washed three times in PBS before being suspended at the desired concentration in assay medium. For 96-well plates the suspension was made to give a final concentration of 5×10EE3 cells/well.
The following chemicals were used in the assay: Pluronic F-68 (10%) (Gibco 2404), ovalbumin (Sigma A5503), DMEM w/o phenol red (Gibco 11880-028), 1 M Hepes (Gibco 15630), Glutamax 100× (Gibco 35050) and steadylite plus (PerkinElmer 6016757).
Assay Medium consisted of DMEM w/o phenol red, 10 mM Hepes, lx GlutaMAX, 2% Ovalbumin and 0.2% Pluronic F-68.
Cell stocks were thawed in a 37° C. water bath. Cells were washed three times in PBS. The cells were counted and adjusted to 5×10EE3 cells/50 μl (1×10EE5 cells/ml) in Assay Medium. A 50 μl aliquot of cells was transferred to each well in the assay plate.
Stocks of the test compounds and reference compounds were diluted to a concentration of […] in Assay Medium. Compounds were diluted 10-fold to give the following concentrations: 2×10EE-6 M, 2×10EE-7 M, 2×10EE-8 M; 2×10EE-9 M, 2×10EE-10 M, 2×10EE-11 M, 2×10EE-12 M and 2×10EE-13 M. For each compound a blank assay medium control was also included.
A 50 μl aliquot of compound or blank was transferred from the dilution plate to the assay plate. Compounds were tested at the following final concentrations: 1×10EE-6 M, 1×10EE-7 M, 1×10EE-8 M; 1×10EE-9 M, 1×10EE-10 M, 1×10EE-11 M and 1×10EE-12 M and 1×10EE-13 M.
The assay plate was incubated for 3 h in a 5% CO2 incubator at 37° C. The assay plate was removed from the incubator and allowed to stand at room temperature for 15 min. A 100 μl aliquot of steadylite plus reagent was added to each well of the assay plate (reagent is light sensitive). Each assay plate was covered with aluminum foil to protect it from light and shaken for 30 min at room temperature. Each assay plate was read in a Perkin Elmer TopCount NXT instrument.
The data from the TopCount instrument was transferred to GraphPad Prism software. The software performed a non-linear regression (log(agonist) vs response-Variable slope (four parameter)). EC50 values were calculated by the software and reported in pM.

T1 sequence (P43220 24-463): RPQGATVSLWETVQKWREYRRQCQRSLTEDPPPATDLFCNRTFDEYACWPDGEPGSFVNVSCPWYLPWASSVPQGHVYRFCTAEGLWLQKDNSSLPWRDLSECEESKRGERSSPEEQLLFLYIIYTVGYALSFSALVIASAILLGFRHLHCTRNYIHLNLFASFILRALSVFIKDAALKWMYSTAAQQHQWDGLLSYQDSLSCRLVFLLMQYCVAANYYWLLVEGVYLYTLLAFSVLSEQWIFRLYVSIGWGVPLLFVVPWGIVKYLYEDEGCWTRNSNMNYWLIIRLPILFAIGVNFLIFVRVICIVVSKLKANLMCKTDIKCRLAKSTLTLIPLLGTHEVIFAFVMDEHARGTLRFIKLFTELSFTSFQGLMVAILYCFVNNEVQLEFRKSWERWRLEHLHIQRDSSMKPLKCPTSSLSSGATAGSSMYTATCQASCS

| EC50 [nM] | Compound |
| --- | --- |
| 0.044 | CC(C)C[C@H](NC(=O)[C@H](Cc1ccc(O)cc1)NC(=O)[C@H](CCCCN)NC(=O)[C@H](CO)NC(=O)[C@H](CC(C)C)NC(=O)[C@H](CC(=O)O)NC(=O)[C@H](CO)NC(=O)[C@@H](NC(=O)[C@H](Cc1ccccc1)NC(=O)[C@@H](NC(=O)CNC(=O)[C@H](CCC(N)=O)NC(=O)C(C)(C)NC(=O)[C@@H](N)Cc1c[nH]cn1)[C@@H](C)O)[C@@H](C)O)C(=O)N[C@@H](CC(=O)O)C(=O)N[C@@H](CO)C(=O)N[C@@H](CCCNC(=N)N)C(=O)N[C@@H](CCCNC(=N)N)C(=O)N[C@@H](C)C(=O)N[C@@H](CCCNC(=N)N)C(=O)N[C@@H](CCCCNC(=O)CC[C@H](NC(=O)CC[C@H](NC(=O)COCCOCCNC(=O)COCCOCCNC(=O)CC[C@H](NC(=O)CCCCCCCCCCCCCCCCC(=O)O)C(=O)O)C(=O)O)C(=O)O)C(=O)N[C@@H](Cc1ccccc1)C(=O)N[C@H](C(=O)N[C@@H](CCC(N)=O)C(=O)N[C@@H](Cc1c[nH]c2ccccc12)C(=O)N[C@@H](CC(C)C)C(=O)N[C@@H](CC(C)C)C(=O)N[C@@H](CO)C(=O)N[C@H](C(N)=O)[C@@H](C)O)C(C)C [Example 2] (H-H[Aib]QGTFTSDLSKYLDSRRARK([γGlu-γGlu-AEEA-AEEA-γGlu-C18 diacid])FVQWLLST-NH2; N-terminus assumed) |
| 0.006 | CC(C)C[C@H](NC(=O)[C@H](Cc1ccc(O)cc1)NC(=O)[C@H](CCCCN)NC(=O)[C@H](CO)NC(=O)[C@H](CC(C)C)NC(=O)[C@H](CC(=O)O)NC(=O)[C@H](CO)NC(=O)[C@@H](NC(=O)[C@H](Cc1ccccc1)NC(=O)[C@@H](NC(=O)CNC(=O)[C@H](CCC(N)=O)NC(=O)C(C)(C)NC(=O)[C@@H](N)Cc1c[nH]cn1)[C@@H](C)O)[C@@H](C)O)C(=O)N[C@@H](CC(=O)O)C(=O)N[C@@H](CO)C(=O)N[C@@H](CCCNC(=N)N)C(=O)N[C@@H](CCCNC(=N)N)C(=O)N[C@@H](C)C(=O)N[C@@H](CCCNC(=N)N)C(=O)N[C@@H](CC(=O)O)C(=O)N[C@@H](Cc1ccccc1)C(=O)N[C@H](C(=O)N[C@@H](CCCCNC(=O)CC[C@H](NC(=O)CC[C@H](NC(=O)COCCOCCNC(=O)COCCOCCNC(=O)CC[C@H](NC(=O)CCCCCCCCCCCCCCCCC(=O)O)C(=O)O)C(=O)O)C(=O)O)C(=O)N[C@@H](Cc1c[nH]c2ccccc12)C(=O)N[C@@H](CC(C)C)C(=O)N[C@@H](CC(C)C)C(=O)N[C@@H](CO)C(=O)N[C@H](C(N)=O)[C@@H](C)O)C(C)C [Example 3, N^ε24-[(4S)-4-carboxy-4-[[(4S)-4-carboxy-4-[[2-[2-[2-[[2-[2-[2-[[(4S)-4-carboxy-4-(17-carboxyheptadecanoylamino)butanoyl]amino]ethoxy]ethoxy]acetyl]amino]ethoxy]ethoxy]acetyl]amino]butanoyl]amino]butanoyl]-[Aib2,Leu10,Arg20,Lys24,Leu27,Ser28]-Glucagon amide] (H-H[Aib]QGTFTSDLSKYLDSRRARDFVK([γGlu-γGlu-AEEA-AEEA-γGlu-C18 diacid])WLLST-NH2; N-terminus assumed) |
| 0.005 | CC(C)C[C@H](NC(=O)[C@H](CC(C)C)NC(=O)[C@H](Cc1c[nH]c2ccccc12)NC(=O)[C@H](CCC(N)=O)NC(=O)[C@@H](NC(=O)[C@H](Cc1ccccc1)NC(=O)[C@H](CC(=O)O)NC(=O)[C@H](CCCNC(=N)N)NC(=O)[C@H](C)NC(=O)[C@H](CCCNC(=N)N)NC(=O)[C@H](CCCNC(=N)N)NC(=O)[C@H](CO)NC(=O)[C@H](CC(=O)O)NC(=O)[C@H](CC(C)C)NC(=O)[C@H](Cc1ccc(O)cc1)NC(=O)[C@H](CCCCN)NC(=O)[C@H](CO)NC(=O)[C@H](CC(C)C)NC(=O)[C@H](CC(=O)O)NC(=O)[C@H](CO)NC(=O)[C@@H](NC(=O)[C@H](Cc1ccccc1)NC(=O)[C@@H](NC(=O)CNC(=O)[C@H](CCC(N)=O)NC(=O)C(C)(C)NC(=O)[C@@H](N)Cc1c[nH]cn1)[C@@H](C)O)[C@@H](C)O)C(C)C)C(=O)N[C@@H](CO)C(=O)N[C@@H](CCCCNC(=O)CC[C@H](NC(=O)CC[C@H](NC(=O)COCCOCCNC(=O)COCCOCCNC(=O)CC[C@H](NC(=O)CCCCCCCCCCCCCCCCC(=O)O)C(=O)O)C(=O)O)C(=O)O)C(N)=O [Example 5, N^ε29-[(4S)-4-carboxy-4-[[(4S)-4-carboxy-4-[[2-[2-[2-[[2-[2-[2-[[(4S)-4-carboxy-4-(17-carboxyheptadecanoylamino)butanoyl]amino]ethoxy]ethoxy]acetyl]amino]ethoxy]ethoxy]acetyl]amino]butanoyl]amino]butanoyl]-[Aib2,Leu10,Arg20,Leu27,Ser28,Lys29]-Glucagon amide] (H-H[Aib]QGTFTSDLSKYLDSRRARDFVQWLLSK([γGlu-γGlu-AEEA-AEEA-γGlu-C18 diacid])-NH2; N-terminus assumed) |
| 0.02 | CC(C)C[C@H](NC(=O)[C@H](Cc1ccc(O)cc1)NC(=O)[C@H](CCCCN)NC(=O)[C@H](CO)NC(=O)[C@H](CC(C)C)NC(=O)[C@H](CC(=O)O)NC(=O)[C@H](CO)NC(=O)[C@@H](NC(=O)[C@H](Cc1ccccc1)NC(=O)[C@@H](NC(=O)CNC(=O)[C@H](CCC(N)=O)NC(=O)C(C)(C)NC(=O)[C@@H](N)Cc1c[nH]cn1)[C@@H](C)O)[C@@H](C)O)C(=O)N[C@@H](CC(=O)O)C(=O)N[C@@H](CO)C(=O)N[C@@H](CCCNC(=N)N)C(=O)N[C@@H](CCCNC(=N)N)C(=O)N[C@@H](C)C(=O)N[C@@H](CCCNC(=N)N)C(=O)N[C@@H](CC(=O)O)C(=O)N[C@@H](Cc1ccccc1)C(=O)N[C@H](C(=O)N[C@@H](CCC(N)=O)C(=O)N[C@@H](Cc1c[nH]c2ccccc12)C(=O)N[C@@H](CC(C)C)C(=O)N[C@@H](CC(C)C)C(=O)N[C@@H](CO)C(=O)N[C@H](C(=O)N[C@@H](CCCCNC(=O)CC[C@H](NC(=O)CC[C@H](NC(=O)COCCOCCNC(=O)COCCOCCNC(=O)CC[C@H](NC(=O)CCCCCCCCCCCCCCCCC(=O)O)C(=O)O)C(=O)O)C(=O)O)C(N)=O)[C@@H](C)O)C(C)C [Example 6, N^α-([Aib2,Leu10,Arg20,Leu27,Ser28]-Glucagonyl)-N{Epsilon}[(4S)-4-carboxy-4-[[(4S)-4-carboxy-4-[[2-[2-[2-[[2-[2-[2-[[(4S)-4-carboxy-4-(17-carboxyheptadecanoylamino)butanoyl]amino]ethoxy]ethoxy]acetyl]amino]ethoxy]ethoxy]acetyl]amino]butanoyl]amino]butanoyl]Lys amide] (H-H[Aib]QGTFTSDLSKYLDSRRARDFVQWLLSTK([γGlu-γGlu-AEEA-AEEA-γGlu-C18 diacid])-NH2) |
